Test results published in ChEMBL document CHEMBL1255495, “Experimental conditions that enhance potency of an antibacterial oligo-acyl-lysyl” (2010).
Converted amounts (≈) assume the structure as drawn.

Legend:
Assay type in all cases: functional
[1] = test system: Escherichia coli; assay: Antibacterial activity against Escherichia coli O157:H7 ATCC 43894 after 24 hrs by microdilution method in presence of 160 mM MgCl2; details: O157:H7 ATCC 43894, 24 h
[2] = test system: Listeria monocytogenes; assay: Antibacterial activity against Listeria monocytogenes ATCC 19115 at pH 5.5 after 24 hrs by microdilution method; details: ATCC 19115, 24 h
[3] = test system: Escherichia coli; assay: Antibacterial activity against Escherichia coli O157:H7 ATCC 43894 after 24 hrs at 37 degC by microdilution method; details: O157:H7 ATCC 43894, 24 h
[4] = test system: Staphylococcus aureus; assay: Antibacterial activity against methicillin-resistant Staphylococcus aureus isolate 15903 at pH 5.5 after 24 hrs by microdilution method; details: isolate 15903, 24 h
[5] = test system: Listeria monocytogenes; assay: Ratio of MIC for Listeria monocytogenes ATCC 19115 in presence of 85 mM NaCl to MIC for Listeria monocytogenes ATCC 19115 at pH 8.5 after 24 hrs at 48 degC in presence of 85 mM NaCl
[6] = test system: Listeria monocytogenes; assay: Antibacterial activity against Listeria monocytogenes ATCC 19115 after 24 hrs by microdilution method in presence of 85 mM NaCl; details: ATCC 19115, 24 h
[7] = test system: Listeria monocytogenes; assay: Antibacterial activity against Listeria monocytogenes ATCC 19115 after 24 hrs by microdilution method in presence of 40 mM MgCl2; details: ATCC 19115, 24 h
[8] = test system: Listeria monocytogenes; assay: Antibacterial activity against Listeria monocytogenes ATCC 19115 after 72 hrs at 4 degC by microdilution method; details: ATCC 19115, 72 h
[9] = test system: Escherichia coli; assay: Antibacterial activity against Escherichia coli O157:H7 ATCC 43894 after 24 hrs by microdilution method in presence of 40 mM MgCl2; details: O157:H7 ATCC 43894, 24 h
[10] = test system: Escherichia coli; assay: Antibacterial activity against Escherichia coli O157:H7 ATCC 43894 at pH 7 after 24 hrs by microdilution method; details: O157:H7 ATCC 43894, 24 h
[11] = test system: Escherichia coli; assay: Antibacterial activity against Escherichia coli O157:H7 ATCC 43894 after 24 hrs at 48 degC by microdilution method; details: O157:H7 ATCC 43894, 24 h
[12] = test system: Staphylococcus aureus; assay: Antibacterial activity against methicillin-resistant Staphylococcus aureus isolate 15903 at pH 7 after 24 hrs by microdilution method; details: isolate 15903, 24 h
[13] = test system: Staphylococcus aureus; assay: Antibacterial activity against methicillin-resistant Staphylococcus aureus isolate 15903 after 24 hrs by microdilution method in presence of 85 mM NaCl; details: isolate 15903, 24 h
[14] = test system: Escherichia coli; assay: Antibacterial activity against Escherichia coli O157:H7 ATCC 43894 after 24 hrs by microdilution method in presence of 20 mM MgCl2; details: O157:H7 ATCC 43894, 24 h
[15] = test system: Escherichia coli; assay: Antibacterial activity against Escherichia coli O157:H7 ATCC 43894 after 72 hrs at 4 degC by microdilution method; details: O157:H7 ATCC 43894, 72 h
[16] = test system: Listeria monocytogenes; assay: Antibacterial activity against Listeria monocytogenes ATCC 19115 after 24 hrs by microdilution method in presence of 20 mM MgCl2; details: ATCC 19115, 24 h
[17] = test system: Escherichia coli; assay: Antibacterial activity against Escherichia coli O157:H7 ATCC 43894 after 24 hrs by microdilution method in presence of 85 mM NaCl; details: O157:H7 ATCC 43894, 24 h
[18] = test system: Staphylococcus aureus; assay: Antibacterial activity against Staphylococcus aureus ATCC 25923 at pH 7 after 24 hrs by microdilution method; details: ATCC 25923, 24 h
[19] = test system: Staphylococcus aureus; assay: Antibacterial activity against methicillin-resistant Staphylococcus aureus isolate 15903 after 24 hrs by microdilution method in presence of 170 mM NaCl; details: isolate 15903, 24 h
[20] = test system: Listeria monocytogenes; assay: Antibacterial activity against Listeria monocytogenes ATCC 19115 after 24 hrs by microdilution method in presence of 80 mM MgCl2; details: ATCC 19115, 24 h
[21] = test system: Escherichia coli; assay: Antibacterial activity against Escherichia coli O157:H7 ATCC 43894 after 24 hrs by microdilution method in presence of 260 mM NaCl; details: O157:H7 ATCC 43894, 24 h
[22] = test system: Listeria monocytogenes; assay: Antibacterial activity against Listeria monocytogenes ATCC 19115 assessed as reduction in bacterial population at 0.01 to 10 uM up to 15 mins by time-kill assay
[23] = test system: Listeria monocytogenes; assay: Antibacterial activity against Listeria monocytogenes ATCC 19115 at pH 7 after 24 hrs by microdilution method; details: ATCC 19115, 24 h
[24] = test system: Escherichia coli; assay: Antibacterial activity against Escherichia coli O157:H7 ATCC 43894 after 24 hrs by microdilution method in presence of 1030 mM NaCl; details: O157:H7 ATCC 43894, 24 h
[25] = test system: Staphylococcus aureus; assay: Antibacterial activity against methicillin-resistant Staphylococcus aureus isolate 15903 assessed as reduction in bacterial population at 0.01 to 10 uM up to 15 mins by time-kill assay
[26] = test system: Listeria monocytogenes; assay: Antibacterial against Listeria monocytogenes ATCC 19115 at pH 8.5 after 24 hrs at 48 degC by microdilution method in presence of 85 mM NaCl; details: ATCC 19115, 24 h
[27] = test system: Staphylococcus aureus; assay: Antibacterial activity against methicillin-resistant Staphylococcus aureus isolate 15903 after 24 hrs at 37 degC by microdilution method; details: isolate 15903, 24 h
[28] = test system: Staphylococcus aureus; assay: Antibacterial against methicillin-resistant Staphylococcus aureus isolate 15903 at pH 8.5 after 24 hrs at 48 degC by microdilution method in presence of 85 mM NaCl; details: isolate 15903, 24 h
[29] = test system: Listeria monocytogenes; assay: Antibacterial activity against Listeria monocytogenes ATCC 19115 after 24 hrs by microdilution method in presence of 160 mM MgCl2; details: ATCC 19115, 24 h

**Q.** What does the source list for `CCCCCCCCCCCC(=O)N[C@@H](CCCCN)C(=O)NCCCCCCCC(=O)N[C@@H](CCCCN)C(=O)NCCCCCCCC(=O)N[C@@H](CCCCN)C(=O)NCCCCCCCC(=O)N[C@@H](CCCCN)C(=O)NCCCCCCCC(=O)N[C@@H](CCCCN)C(=O)NCCCCCCCC(=O)N[C@@H](CCCCN)C(=O)NCCCCCCCC(=O)N[C@@H](CCCCN)C(=O)NCCCCCCCC(=O)N[C@@H](CCCCN)C(N)=O`?
**A.** MIC [1]: 50 µM; MIC [2]: 3.1 µM (≈ 6.86 µg/mL); MIC [3]: 3.1 µM (≈ 6.86 µg/mL); MIC [4]: > 50 µM; Ratio [5]: 32; MIC [6]: 1.6 µM; MIC [7]: 6.3 µM; MIC [8]: 3.1 µM (≈ 6.86 µg/mL); MIC [9]: 6.3 µM; MIC [10]: 3.1 µM (≈ 6.86 µg/mL); MIC [11]: 1.6 µM (≈ 3.54 µg/mL); MIC [12]: 12.5 µM (≈ 27.7 µg/mL); MIC [13]: 12.5 µM; MIC [14]: 3.1 µM; MIC [15]: 6.3 µM (≈ 13.9 µg/mL); MIC [16]: 3.1 µM; MIC [17]: 3.1 µM; MIC [18]: 25 µM (≈ 55.3 µg/mL); MIC [19]: 50 µM; MIC [20]: 12.5 µM; MIC [21]: 6.3 µM; inhibition (INH) [22]: 99%; MIC [23]: 1.6 µM (≈ 3.54 µg/mL); MIC [24]: 12.5 µM; inhibition (INH) [25]: 99%; MIC [26]: 0.05 µM; MIC [27]: 12.5 µM (≈ 27.7 µg/mL); MIC [28]: 0.8 µM; MIC [29]: 25 µM
